Assay results as given in US8354402B2, “Polyarylcarboxamides useful as lipid lowering agents” (Janssen Pharmaceutica N.V., priority 2000, dated 2013).

system: ApoB secretion, HepG2 cells; assay: Quantification of the secretion of ApoB (HepG2 cells, immunoprecipitation, scintillation counting); assay type: cell-based; settings: 24 hours of incubation, listed as 238
Protocol: C.1. Quantification of the Secretion of ApoB
HepG2 cells were cultured in 24-well plates in Minimal Essential Medium Rega 3 containing 10% fetal calf serum. Rega 3 has the following composition: CaCl2 (264 μg/ml), KCl (400 μg/ml), MgSO4.7H2O (200 μg/ml), NaCl (6800 μg/ml), NaHCO3 (850 μg/ml), NaH2PO4.H2O (158 μg/ml), D-glucose (1000 μg/ml), phenol red (10 μg/ml), L-alanine (8.9 μg/ml), L-arginine HCl (12 μg/ml), L-asparagine.H2O (15 μg/ml), L-aspartic acid (13.3 μg/ml), L-cystine (24 μg/ml), L-glutamic acid (14.7 μg/ml), glycine (7.5 μg/ml), L-histidine.HCl .H2O (42 μg/ml), L-isoleucine (52 μg/ml), L-leucine (52 μg/ml), L-lysine.HCl (72.5 μg/ml), L-methionine (15 μg/ml), L-phenylalanine (32 μg/ml), L-proline (11.5 μg/ml), L-serine (10.5 μg/ml), L-threonine (48 μg/ml), L-tryptophan (10 μg/ml), L-tyrosine (36 μg/ml), L-valine (46 μg/ml), D-Ca pantothenate (1 μg/ml), choline chloride (1 μg/ml), folic acid (1 μg/ml), 1-enositol (2 μg/ml), nicotinamide (1 μg/ml), pyridoxal HCl (1 μg/ml), riboflavin (0.1 μg/ml) and thiamine HCl (1 μg/ml).
At 70% confluency, the medium was changed and the test compound or carrier (dimethylsulfoxide, 0.4% final concentration) was added. After 24 hours of incubation, the medium was transferred to Eppendorf tubes and cleared by centrifugation. A sheep antibody directed against either apo B was added to the supernatant and the mixture was kept at 8° C. for 24 hours. Then, rabbit anti-sheep antibody was added and the immune complex was allowed to precipitate for 24 hours at 8° C. The immunoprecipitate was pelleted by centrifugation for 25 minutes at 1320 g and washed twice with a buffer containing 40 mM 4-morpholinepropanesulfonic acid, 40 mM NaH2PO4, 100 mM NaF, 0.2 mM dithiothreitol, 5 mM ethylenediamine tetraacetic acid, 5 mM ethylenebis (oxyethylenenitrilo) tetraacetic acid, 1% Triton-X-100, 0.5% sodium deoxycholate, 0.1% sodium dodecylsulphate, 0.2 μM leupeptin and 0.2 μM phenylmethylsulphonylfluoride. Radioactivity in the pellet was quantified by liquid scintillation counting.
Resulting IC50 values are enumerated in Table C.1 for a number of compounds No. 1 to No. 123.

pIC50	SMILES
7.824	COC(=O)C(c1ccccc1)C1CCN(c2ccc(NC(=O)c3ccccc3-c3ccc(C(C)(C)C)cc3)cc2)CC1 (centres unmarked) [Co. No. 238]

same assay, conditions: Homo sapiens, HepG2, 24 h, 24 hours of incubation

SMILES	IC50 [nM]
CC(C)OC(=O)C(c1ccccc1)N1CCC(c2ccc(NC(=O)c3ccccc3-c3ccc(C(F)(F)F)cc3)cc2)CC1 (centres unmarked) [Co. No. 223]	370
O=C(Nc1ccc(N2CCC(C(C(=O)NCc3ccccc3)c3ccccc3)CC2)cc1)c1ccccc1-c1ccccc1Cl (centres unmarked) [Co. No. 103]	73.6
COC(=O)C(c1ccccc1)N1CC=C(c2ccc(NC(=O)c3ccccc3-c3ccccc3)cc2)CC1 (centres unmarked) [Co. No. 156]	122
C=CCOC(=O)C(c1ccccc1)N1CCN(c2ccc(NC(=O)c3ccccc3-c3ccc(C(F)(F)F)cc3)cc2)CC1 (centres unmarked) [Co. No. 144]	202
O=C(Nc1ccc(N2CCC(C(C(=O)Nc3ccccc3)c3ccccc3)CC2)cc1)c1ccccc1-c1cc(Cl)cc(Cl)c1 (centres unmarked) [Co. No. 106]	251
O=C(Nc1ccc(N2CCN(C(C(=O)Oc3ccccc3)c3ccccc3)CC2)cc1)c1ccccc1-c1ccccc1 (centres unmarked) [Co. No. 150]	173
CC(C)=CCOC(=O)C(c1ccccc1)C1CCN(c2ccc(NC(=O)c3ccccc3-c3ccc(C(F)(F)F)cc3)cc2)CC1 (centres unmarked) [Co. No. 245]	525
CCCNC(=O)C(c1ccccc1)C1CCN(c2ccc(NC(=O)c3ccccc3-c3ccc(OC)cc3)cc2)CC1 (centres unmarked) [Co. No. 46]	461
COC(=O)C(c1ccccc1)N1CCN(c2ccc(NC(=O)c3ccccc3-c3ccc(C(F)(F)F)cc3)c(C(F)(F)F)c2)CC1 (centres unmarked) [Co. No. 206]	783
C=CCNC(=O)C(c1ccccc1)N1CCC(c2ccc(NC(=O)c3ccccc3-c3ccccc3)cc2)CC1 (centres unmarked) [Co. No. 163]	250
O=C(Nc1ccc(C2CCN(C(C(=O)OCc3ccccc3)c3ccccc3)CC2)cc1)c1ccccc1-c1ccccc1 (centres unmarked) [Co. No. 153]	1550
O=C(Nc1ccc(N2CCC(C(C(=O)Nc3ccccc3)c3ccccc3)CC2)cc1)c1cccc2c1-c1ccccc1C2 (centres unmarked) [Co. No. 129]	2770
CCCNC(=O)C(c1ccccc1)N1CCCN(c2ccc(NC(=O)c3ccccc3-c3ccc(C(F)(F)F)cc3)cc2)CC1 (centres unmarked) [Co. No. 123]	241
CCNC(=O)C(c1ccccc1)C1CCN(c2ccc(NC(=O)c3ccccc3-c3ccccc3C)cc2)CC1 (centres unmarked) [Co. No. 85, N-[4-[4-[2-(ethylamino)-2-oxo-1-phenylethyl]-1-piperidinyl]phenyl]-2′-methyl-[1,1′-biphenyl]-2-carboxamide]	129
CCCNC(=O)C(c1ccccc1)C1CCN(c2ccc(NC(=O)c3ccccc3C(=O)c3ccccc3)cc2)CC1 (centres unmarked) [Co. No. 15]	205
CC(C)NC(=O)C(c1ccccc1)C1CCN(c2ccc(NC(=O)c3cccc4c3-c3ccccc3C4)cc2)CC1 (centres unmarked) [Co. No. 21]	245
C=CCOC(=O)C(c1ccccc1)N1CCN(c2ccc(NC(=O)c3ccccc3-c3ccccc3)cc2)CC1 (centres unmarked) [Co. No. 146]	341
CC(C)NC(=O)C(c1ccccc1)C1CCN(c2ccc(NC(=O)c3ccccc3-c3ccccc3)cc2)CC1 (centres unmarked) [Co. No. 22]	104
CC(C)NC(=O)C(c1ccccc1)C1CCN(c2ccc(NC(=O)c3ccccc3OCc3ccccc3)cc2)CC1 (centres unmarked) [Co. No. 26]	275
CCNC(=O)C(c1ccccc1)N1CCN(c2ccc(NC(=O)c3cc(OC)c(OC)cc3-c3ccc(C(F)(F)F)cc3)cc2)CC1 (centres unmarked) [Co. No. 202]	184
O=C(Nc1ccc(N2CCN(CC(C(=O)NCC(F)(F)F)c3ccccc3)CC2)cc1)c1ccccc1-c1ccc(C(F)(F)F)cc1 (centres unmarked) [Co. No. 66]	79.6
C=CCOC(=O)C(c1ccccc1)N1CCC(c2ccc(NC(=O)c3ccccc3-c3ccc(C(F)(F)F)cc3)cc2)CC1 (centres unmarked) [Co. No. 152]	94.4
COC(=O)C(c1ccc(Br)cc1)N1CCN(c2ccc(NC(=O)c3ccccc3-c3ccc(C(F)(F)F)cc3)cc2)CC1 (centres unmarked) [Co. No. 261]	743
CCCNC(=O)C(c1ccccc1)C1CCN(c2ccc(NC(=O)c3ccccc3-c3ccc4ccccc4c3)cc2)CC1 (centres unmarked) [Co. No. 47]	199
CCOC(=O)C(c1ccc(Cl)cc1)N1CCN(c2ccc(NC(=O)c3ccccc3-c3ccc(C(F)(F)F)cc3)cc2)CC1 (centres unmarked) [Co. No. 262]	558

Further lines, results first:

IC50 [nM]	SMILES
41.7	CCNC(=O)C(c1ccccc1)N1CCC(c2ccc(NC(=O)c3ccccc3-c3ccccc3)cc2)CC1 (centres unmarked) [Co. No. 149]
< 30	CCNC(=O)C(c1ccccc1)N1CCN(c2ccc(NC(=O)c3ccc(Cl)cc3-c3ccc(C(F)(F)F)cc3)cc2)CC1 (centres unmarked) [Co. No. 201]
< 30	CCNC(=O)C(c1ccccc1)N1CCN(c2ccc(NC(=O)c3ccccc3-c3ccc(C(F)(F)F)cc3)c(C)c2)CC1 (centres unmarked) [Co. No. 215]
50.2	CCCNC(=O)C(c1ccccc1)C1CCN(c2ccc(NC(=O)c3ccccc3-c3ccc(C(C)(C)C)cc3)cc2)CC1 (centres unmarked) [Co. No. 132]
< 30	CCNC(=O)C(c1ccccc1)N1CCN(c2ccc(NC(=O)c3ccccc3-c3ccc(C(F)(F)F)cc3)cc2C)CC1 (centres unmarked) [Co. No. 218]
16.5	CCNC(=O)C(c1ccccc1)N1CCN(c2ccc(NC(=O)c3c(C)cccc3-c3ccc(C(F)(F)F)cc3)cc2)CC1 (centres unmarked) [Co. No. 197]
41.1	COC(=O)C(c1ccccc1)N1CCN(c2ccc(NC(=O)c3c(F)cccc3-c3ccc(C(F)(F)F)cc3)cc2)CC1 (centres unmarked) [Co. No. 187]
3.31	CCNC(=O)C(c1ccccc1)C1CCN(c2ccc(NC(=O)c3ccccc3-c3ccc(C(F)(F)F)cc3)cc2)CC1 (centres unmarked) [Co. No. 181]
1.84	CC(C)(C)c1ccc(-c2ccccc2C(=O)Nc2ccc(N3CCC(C(C(=O)NCc4ccccc4)c4ccccc4)CC3)cc2)cc1 (centres unmarked) [Co. No. 53]
65.3	CCNC(=O)C(c1ccccc1)C1CCN(c2ccc(NC(=O)c3ccccc3-c3cccc4ccccc34)cc2)CC1 (centres unmarked) [Co. No. 134]
7.19	COC(=O)C(c1ccccc1)N1CCN(c2ccc(NC(=O)c3cc(Cl)ccc3-c3ccc(C(F)(F)F)cc3)cc2)CC1 (centres unmarked) [Co. No. 191]
43	CCNC(=O)C(c1ccccc1)N1CCN(c2ccc(NC(=O)c3ccc(C)cc3-c3ccc(C(F)(F)F)cc3)cc2)CC1 (centres unmarked) [Co. No. 194]
47.1	CCNC(=O)C(c1ccccc1)N1CCN(c2cc(C)c(NC(=O)c3ccccc3-c3ccc(C(F)(F)F)cc3)c(C)c2)CC1 (centres unmarked) [Co. No. 216]
7.94	Cc1ccc(-c2ccccc2C(=O)Nc2ccc(N3CCC(C(C(=O)NCc4ccccc4)c4ccccc4)CC3)cc2)cc1 (centres unmarked) [Co. No. 104]
21.6	COC(=O)C(c1ccccc1)N1CCN(c2ccc(N(C)C(=O)c3ccccc3-c3ccc(C(F)(F)F)cc3)cc2)CC1 (centres unmarked) [Co. No. 183]
5.04	CC(C)(C)c1ccc(-c2ccccc2C(=O)Nc2ccc(N3CCC(C(C(=O)NCc4ccccc4)c4ccc(F)cc4)CC3)cc2)cc1 (centres unmarked) [Co. No. 255]
60.4	C=CCNC(=O)C(c1ccccc1)N1CCN(c2ccc(NC(=O)c3ccccc3-c3ccccc3)cc2)CC1 (centres unmarked) [Co. No. 148]
8.89	CCNC(=O)C(c1ccccc1)N1CCC(c2ccc(NC(=O)c3ccccc3-c3ccc(C(F)(F)F)cc3)cc2)CC1 (centres unmarked) [Co. No. 69, N-[4-[1-[2-(ethylamino)-2-oxo-1-phenylethyl]-4-piperidinyl]phenyl]-4′-(trifluoromethyl)-[1,1′-biphenyl]-2-carboxamide]
≤ 30	O=C(Nc1ccc(N2CCC(C(C(=O)Nc3ccccc3)c3ccccc3)CC2)cc1)c1ccccc1-c1ccc(C(F)(F)F)cc1 (centres unmarked) [Co. No. 36]
7.96	COC(=O)C(c1ccccc1)N1CCN(c2cc(C)c(NC(=O)c3ccccc3-c3ccc(C(F)(F)F)cc3)c(C)c2)CC1 (centres unmarked) [Co. No. 209]
18.5	O=C(Nc1ccc(N2CCC(C(C(=O)NCc3ccccc3)c3ccccc3)CC2)cc1)c1ccccc1-c1ccc(F)cc1 (centres unmarked) [Co. No. 102]
44.1	CCNC(=O)C(c1ccccc1)C1CCN(c2ccc(NC(=O)c3ccccc3-c3ccc(C)cc3)cc2)CC1 (centres unmarked) [Co. No. 94]
≤ 30	O=C(Nc1ccc(N2CCN(C(C(=O)NCc3cccnc3)c3ccccc3)CC2)cc1)c1ccccc1-c1ccc(C(F)(F)F)cc1 (centres unmarked) [Co. No. 59]
34.3	O=C(Nc1ccc(N2CCC(C(C(=O)Oc3ccccc3)c3ccccc3)CC2)cc1)c1ccccc1-c1ccccc1 (centres unmarked) [Co. No. 178]
< 30	C=CCNC(=O)C(c1ccccc1)N1CC=C(c2ccc(NC(=O)c3ccccc3-c3ccccc3)cc2)CC1 (centres unmarked) [Co. No. 167]
63.2	CCNC(=O)C(c1ccccc1)C1CCN(c2ccc(NC(=O)c3ccccc3-c3ccc(F)cc3)cc2)CC1 (centres unmarked) [Co. No. 92]
72.3	CCNC(=O)C(c1ccccc1)C1CCN(c2ccc(NC(=O)c3ccccc3-c3ccc(OC)cc3)cc2)CC1 (centres unmarked) [Co. No. 93]
